Experiments:
Test in all cases: radiometric filter-binding kinase assay
CDK2 CCNA2 (human) = CDK2 CCNA2 (human) (UniProt P20248+P24941)
NUAK1 (human) = NUAK1 (human) (UniProt O60285)
SYK (human) = SYK (human) (UniProt P43405)
MARK4 (human) = MARK4 (human) (UniProt Q96L34)
EPHB3 (human) = EPHB3 (human) (UniProt P54753)
CSNK2A1 (human) = CSNK2A1 (human) (UniProt P68400)
PIM2 (human) = PIM2 (human) (UniProt Q9P1W9)
DYRK1A (human) = DYRK1A (human) (UniProt Q13627)
MAPK13 (human) = MAPK13 (human) (UniProt O15264)
MARK3 (human) = MARK3 (human) (UniProt P27448)
PRKAA1 or PRKAA2 (rat) = conditions: accession and sequence are those of the human protein
CHEK1 (human) = CHEK1 (human) (UniProt O14757)
CAMKK2 (human) = CAMKK2 (human) (UniProt Q96RR4)
INSR (human) = INSR (human) (UniProt P06213)
PRKACA (human) = PRKACA (human) (UniProt P17612)
IGF1R (human) = IGF1R (human) (UniProt P08069)
SRC (human) = SRC (human) (UniProt P12931)
PRKCZ (human) = PRKCZ (human) (UniProt Q05513)
LCK (mouse) = conditions: accession and sequence are those of the human protein
MINK1 (human) = MINK1 (human) (UniProt Q8N4C8)
PAK4 (human) = PAK4 (human) (UniProt O96013)
INSRR (human) = INSRR (human) (UniProt P14616)
MKNK1 (human) = MKNK1 (human) (UniProt Q9BUB5)
NTRK1 (human) = NTRK1 (human) (UniProt P04629)
CaMK1 (human) = CaMK1 (human) (UniProt Q14012)
[1] = system: AKT2 (human), P31751 [S474D]
AURKB (human) = AURKB (human) (UniProt Q96GD4)
JAK2 JH1 JH2 (human) = JAK2 JH1 JH2 (human) (UniProt O60674)
MAP2K1 (human) = MAP2K1 (human) (UniProt Q02750)
MAP3K11 (human) = MAP3K11 (human) (UniProt Q16584)
PHKG1 (human) = PHKG1 (human) (UniProt Q16816)
MAPK10 (human) = MAPK10 (human) (UniProt P53779)
MST4 (human) = MST4 (human) (UniProt Q9P289)
MAP3K9 (human) = MAP3K9 (human) (UniProt P80192)
YES1 (human) = YES1 (human) (UniProt P07947)
RIPK2 (human) = RIPK2 (human) (UniProt O43353)
Sequence of RIPK2 (human) (O43353 whole entry, looked up): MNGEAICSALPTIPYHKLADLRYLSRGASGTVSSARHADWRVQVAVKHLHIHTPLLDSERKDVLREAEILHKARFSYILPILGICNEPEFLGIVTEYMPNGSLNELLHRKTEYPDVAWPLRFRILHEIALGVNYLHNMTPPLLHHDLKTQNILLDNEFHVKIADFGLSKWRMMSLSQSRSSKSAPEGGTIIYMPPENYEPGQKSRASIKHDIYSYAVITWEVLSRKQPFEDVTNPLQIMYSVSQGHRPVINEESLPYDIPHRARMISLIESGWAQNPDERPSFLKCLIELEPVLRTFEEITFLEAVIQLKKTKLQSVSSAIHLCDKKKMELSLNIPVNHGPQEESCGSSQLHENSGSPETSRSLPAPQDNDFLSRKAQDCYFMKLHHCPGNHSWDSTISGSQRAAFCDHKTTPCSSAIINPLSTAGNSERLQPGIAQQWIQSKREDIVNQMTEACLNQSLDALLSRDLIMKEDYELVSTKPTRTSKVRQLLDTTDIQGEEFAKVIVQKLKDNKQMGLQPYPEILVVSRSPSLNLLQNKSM

Sequence of AURKB (human) (Q96GD4 whole entry, looked up): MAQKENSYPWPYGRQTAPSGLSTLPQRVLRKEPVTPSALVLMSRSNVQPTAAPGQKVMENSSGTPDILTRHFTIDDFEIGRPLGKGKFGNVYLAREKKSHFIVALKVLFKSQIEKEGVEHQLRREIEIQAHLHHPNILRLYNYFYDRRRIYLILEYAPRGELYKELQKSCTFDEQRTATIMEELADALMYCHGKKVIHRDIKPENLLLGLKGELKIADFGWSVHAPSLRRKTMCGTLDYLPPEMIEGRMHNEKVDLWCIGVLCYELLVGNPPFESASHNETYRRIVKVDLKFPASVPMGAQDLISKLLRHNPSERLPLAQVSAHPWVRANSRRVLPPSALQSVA
Sequence of MAP2K1 (human) (Q02750 whole entry, looked up): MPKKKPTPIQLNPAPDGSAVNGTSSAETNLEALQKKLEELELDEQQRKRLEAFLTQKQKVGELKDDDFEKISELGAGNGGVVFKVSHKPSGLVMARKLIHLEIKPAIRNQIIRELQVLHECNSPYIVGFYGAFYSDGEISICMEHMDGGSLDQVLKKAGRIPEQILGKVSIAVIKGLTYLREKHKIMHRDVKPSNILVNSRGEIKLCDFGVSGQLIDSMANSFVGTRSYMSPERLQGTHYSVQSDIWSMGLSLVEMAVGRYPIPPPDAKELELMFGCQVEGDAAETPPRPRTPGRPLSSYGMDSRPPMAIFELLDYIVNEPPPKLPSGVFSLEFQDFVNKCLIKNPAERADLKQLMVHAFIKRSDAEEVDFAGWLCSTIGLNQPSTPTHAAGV
Sequence of EPHB3 (human) (P54753 whole entry, looked up): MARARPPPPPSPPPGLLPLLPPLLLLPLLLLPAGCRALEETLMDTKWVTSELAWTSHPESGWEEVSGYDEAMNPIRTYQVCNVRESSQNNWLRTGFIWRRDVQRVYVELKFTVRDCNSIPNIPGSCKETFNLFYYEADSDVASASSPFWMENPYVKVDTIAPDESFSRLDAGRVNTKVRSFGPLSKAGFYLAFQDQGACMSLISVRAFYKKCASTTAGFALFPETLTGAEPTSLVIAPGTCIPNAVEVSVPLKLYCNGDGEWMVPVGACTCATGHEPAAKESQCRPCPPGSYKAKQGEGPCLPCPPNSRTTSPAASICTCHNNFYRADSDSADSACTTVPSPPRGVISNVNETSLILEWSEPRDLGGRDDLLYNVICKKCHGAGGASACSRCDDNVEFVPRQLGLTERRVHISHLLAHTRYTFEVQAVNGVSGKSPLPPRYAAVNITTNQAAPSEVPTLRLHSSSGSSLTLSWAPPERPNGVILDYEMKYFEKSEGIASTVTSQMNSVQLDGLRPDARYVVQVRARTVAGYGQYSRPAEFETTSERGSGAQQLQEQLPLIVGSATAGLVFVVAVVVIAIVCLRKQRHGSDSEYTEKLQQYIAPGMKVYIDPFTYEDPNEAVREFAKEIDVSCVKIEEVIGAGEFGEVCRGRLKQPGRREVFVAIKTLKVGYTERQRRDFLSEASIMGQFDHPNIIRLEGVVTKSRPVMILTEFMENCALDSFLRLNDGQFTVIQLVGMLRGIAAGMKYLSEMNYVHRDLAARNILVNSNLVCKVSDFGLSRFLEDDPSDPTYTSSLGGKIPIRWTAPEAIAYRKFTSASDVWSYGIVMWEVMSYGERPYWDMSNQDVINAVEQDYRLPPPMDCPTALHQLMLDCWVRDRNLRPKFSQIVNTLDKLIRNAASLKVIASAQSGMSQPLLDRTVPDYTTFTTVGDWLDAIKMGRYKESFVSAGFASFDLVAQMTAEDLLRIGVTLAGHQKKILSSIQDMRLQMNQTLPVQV
Sequence of INSRR (human) (P14616 whole entry, looked up): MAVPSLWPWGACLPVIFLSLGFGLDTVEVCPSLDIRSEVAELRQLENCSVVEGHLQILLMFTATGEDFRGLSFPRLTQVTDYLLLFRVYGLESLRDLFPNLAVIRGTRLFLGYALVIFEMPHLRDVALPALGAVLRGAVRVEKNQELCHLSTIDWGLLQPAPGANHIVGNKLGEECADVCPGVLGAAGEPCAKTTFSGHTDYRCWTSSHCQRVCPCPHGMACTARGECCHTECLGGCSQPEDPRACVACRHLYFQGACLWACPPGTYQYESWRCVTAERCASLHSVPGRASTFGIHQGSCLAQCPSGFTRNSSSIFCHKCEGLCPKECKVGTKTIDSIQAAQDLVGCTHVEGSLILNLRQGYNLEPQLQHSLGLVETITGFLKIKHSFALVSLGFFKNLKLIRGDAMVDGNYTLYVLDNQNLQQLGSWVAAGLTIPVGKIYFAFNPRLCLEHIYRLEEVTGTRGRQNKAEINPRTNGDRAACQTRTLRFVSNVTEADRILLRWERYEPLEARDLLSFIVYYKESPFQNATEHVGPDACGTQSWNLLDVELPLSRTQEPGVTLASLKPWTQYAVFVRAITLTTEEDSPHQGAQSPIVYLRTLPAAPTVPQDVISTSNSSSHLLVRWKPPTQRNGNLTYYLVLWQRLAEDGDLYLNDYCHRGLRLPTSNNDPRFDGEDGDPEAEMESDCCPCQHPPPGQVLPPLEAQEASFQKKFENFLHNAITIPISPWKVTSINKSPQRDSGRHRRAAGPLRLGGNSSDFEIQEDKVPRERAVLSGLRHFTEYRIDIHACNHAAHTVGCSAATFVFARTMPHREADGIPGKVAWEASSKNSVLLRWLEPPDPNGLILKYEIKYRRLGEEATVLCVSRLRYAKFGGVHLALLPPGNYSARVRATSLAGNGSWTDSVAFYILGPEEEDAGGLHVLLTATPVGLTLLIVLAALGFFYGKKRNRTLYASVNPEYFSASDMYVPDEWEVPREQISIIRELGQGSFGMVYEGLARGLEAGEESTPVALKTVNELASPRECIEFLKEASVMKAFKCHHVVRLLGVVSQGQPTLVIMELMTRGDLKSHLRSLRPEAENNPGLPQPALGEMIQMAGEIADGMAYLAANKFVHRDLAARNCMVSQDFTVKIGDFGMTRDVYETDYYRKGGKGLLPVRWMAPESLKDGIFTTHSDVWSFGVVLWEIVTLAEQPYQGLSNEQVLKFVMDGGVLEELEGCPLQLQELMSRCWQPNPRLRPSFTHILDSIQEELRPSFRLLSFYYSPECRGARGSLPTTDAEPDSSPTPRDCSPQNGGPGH
Sequence of JAK2 JH1 JH2 (human) (O60674 whole entry, looked up): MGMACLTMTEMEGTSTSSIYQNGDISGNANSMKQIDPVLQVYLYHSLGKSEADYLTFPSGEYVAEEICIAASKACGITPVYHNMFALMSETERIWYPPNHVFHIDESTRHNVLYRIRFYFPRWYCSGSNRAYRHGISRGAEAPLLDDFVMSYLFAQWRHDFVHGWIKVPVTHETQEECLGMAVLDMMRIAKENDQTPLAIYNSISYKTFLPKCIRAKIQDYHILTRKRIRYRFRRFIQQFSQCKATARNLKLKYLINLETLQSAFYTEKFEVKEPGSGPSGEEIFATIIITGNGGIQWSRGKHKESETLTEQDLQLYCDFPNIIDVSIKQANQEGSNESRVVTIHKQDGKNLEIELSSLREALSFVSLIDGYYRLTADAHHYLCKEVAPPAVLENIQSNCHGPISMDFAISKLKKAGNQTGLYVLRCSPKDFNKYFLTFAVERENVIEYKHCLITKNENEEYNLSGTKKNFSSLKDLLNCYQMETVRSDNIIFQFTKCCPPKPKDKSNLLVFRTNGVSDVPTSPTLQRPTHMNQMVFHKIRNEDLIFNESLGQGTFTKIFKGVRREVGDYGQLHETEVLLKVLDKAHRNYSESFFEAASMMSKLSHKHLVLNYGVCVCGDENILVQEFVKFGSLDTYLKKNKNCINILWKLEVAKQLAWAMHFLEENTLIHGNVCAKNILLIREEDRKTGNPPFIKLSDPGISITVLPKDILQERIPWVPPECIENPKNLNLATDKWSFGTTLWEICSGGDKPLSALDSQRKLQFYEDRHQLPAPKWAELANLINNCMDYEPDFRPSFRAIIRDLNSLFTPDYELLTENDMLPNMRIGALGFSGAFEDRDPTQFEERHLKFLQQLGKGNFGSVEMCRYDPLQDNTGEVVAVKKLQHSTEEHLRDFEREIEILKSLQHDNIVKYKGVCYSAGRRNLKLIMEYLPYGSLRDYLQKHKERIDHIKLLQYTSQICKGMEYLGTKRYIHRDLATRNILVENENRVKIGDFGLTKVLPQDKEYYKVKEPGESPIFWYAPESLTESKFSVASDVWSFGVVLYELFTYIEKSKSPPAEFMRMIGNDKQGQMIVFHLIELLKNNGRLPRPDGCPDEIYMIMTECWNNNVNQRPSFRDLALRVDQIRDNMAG
Sequence of CaMK1 (human) (Q14012 whole entry, looked up): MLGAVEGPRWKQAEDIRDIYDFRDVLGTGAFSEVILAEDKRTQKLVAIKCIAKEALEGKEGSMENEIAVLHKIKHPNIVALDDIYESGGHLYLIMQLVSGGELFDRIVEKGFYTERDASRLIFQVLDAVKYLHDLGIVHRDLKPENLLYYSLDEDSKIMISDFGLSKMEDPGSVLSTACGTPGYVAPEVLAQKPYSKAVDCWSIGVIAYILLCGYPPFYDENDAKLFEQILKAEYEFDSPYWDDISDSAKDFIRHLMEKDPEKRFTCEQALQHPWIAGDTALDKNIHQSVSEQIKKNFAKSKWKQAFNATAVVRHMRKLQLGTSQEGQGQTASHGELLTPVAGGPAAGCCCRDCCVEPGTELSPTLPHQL

residual activity (CDK2 CCNA2 (human); compound 0.1 µM): 83% | residual activity (CDK2 CCNA2 (human); compound 1.0 µM): 81% | residual activity (CDK2 CCNA2 (human); compound 10.0 µM): 56% | residual activity (NUAK1 (human); compound 0.1 µM): 101% | residual activity (NUAK1 (human); compound 1.0 µM): 91% | residual activity (NUAK1 (human); compound 10.0 µM): 59% | residual activity (SYK (human); compound 0.1 µM): 106% | residual activity (SYK (human); compound 1.0 µM): 101% | residual activity (SYK (human); compound 10.0 µM): 79% | residual activity (MARK4 (human); compound 0.1 µM): 91% | residual activity (MARK4 (human); compound 1.0 µM): 103% | residual activity (MARK4 (human); compound 10.0 µM): 81% | residual activity (EPHB3 (human); compound 0.1 µM): 81% | residual activity (EPHB3 (human); compound 1.0 µM): 99% | residual activity (EPHB3 (human); compound 10.0 µM): 83% | residual activity (CSNK2A1 (human); compound 0.1 µM): 71% | residual activity (CSNK2A1 (human); compound 1.0 µM): 74% | residual activity (CSNK2A1 (human); compound 10.0 µM): 86% | residual activity (PIM2 (human); compound 1.0 µM): 110% | residual activity (PIM2 (human); compound 10.0 µM): 69% | residual activity (DYRK1A (human); compound 0.1 µM): 92% | residual activity (DYRK1A (human); compound 1.0 µM): 73% | residual activity (DYRK1A (human); compound 10.0 µM): 35% | residual activity (MAPK13 (human); compound 0.1 µM): 100% | residual activity (MAPK13 (human); compound 1.0 µM): 99% | residual activity (MAPK13 (human); compound 10.0 µM): 88% | residual activity (MARK3 (human); compound 0.1 µM): 88% | residual activity (MARK3 (human); compound 1.0 µM): 87% | residual activity (MARK3 (human); compound 10.0 µM): 56% | residual activity (PRKAA1 or PRKAA2 (rat); compound 0.1 µM): 95% | residual activity (PRKAA1 or PRKAA2 (rat); compound 1.0 µM): 82% | residual activity (PRKAA1 or PRKAA2 (rat); compound 10.0 µM): 29% | residual activity (CHEK1 (human); compound 0.1 µM): 89% | residual activity (CHEK1 (human); compound 1.0 µM): 88% | residual activity (CHEK1 (human); compound 10.0 µM): 53% | residual activity (CAMKK2 (human); compound 1.0 µM): 128% | residual activity (CAMKK2 (human); compound 10.0 µM): 105% | residual activity (INSR (human); compound 0.1 µM): 99% | residual activity (INSR (human); compound 1.0 µM): 99% | residual activity (INSR (human); compound 10.0 µM): 99% | residual activity (PRKACA (human); compound 0.1 µM): 79% | residual activity (PRKACA (human); compound 1.0 µM): 33% | residual activity (PRKACA (human); compound 10.0 µM): 8% | residual activity (IGF1R (human); compound 0.1 µM): 96% | residual activity (IGF1R (human); compound 1.0 µM): 107% | residual activity (IGF1R (human); compound 10.0 µM): 105% | residual activity (SRC (human); compound 0.1 µM): 110% | residual activity (SRC (human); compound 1.0 µM): 120% | residual activity (SRC (human); compound 10.0 µM): 102% | residual activity (PRKCZ (human); compound 0.1 µM): 94% | residual activity (PRKCZ (human); compound 1.0 µM): 71% | residual activity (PRKCZ (human); compound 10.0 µM): 25% | residual activity (LCK (mouse); compound 0.1 µM): 102% | residual activity (LCK (mouse); compound 1.0 µM): 99% | residual activity (LCK (mouse); compound 10.0 µM): 94% | residual activity (MINK1 (human); compound 0.1 µM): 107% | residual activity (MINK1 (human); compound 1.0 µM): 96% | residual activity (MINK1 (human); compound 10.0 µM): 72% | residual activity (PAK4 (human); compound 1.0 µM): 96% | residual activity (PAK4 (human); compound 10.0 µM): 79% | residual activity (INSRR (human); compound 0.1 µM): 71% | residual activity (INSRR (human); compound 1.0 µM): 49% | residual activity (INSRR (human); compound 10.0 µM): 21% | residual activity (MKNK1 (human); compound 0.1 µM): 91% | residual activity (MKNK1 (human); compound 1.0 µM): 100% | residual activity (MKNK1 (human); compound 10.0 µM): 90% | residual activity (NTRK1 (human); compound 0.1 µM): 104% | residual activity (NTRK1 (human); compound 1.0 µM): 99% | residual activity (NTRK1 (human); compound 10.0 µM): 97% | residual activity (CaMK1 (human); compound 0.1 µM): 119% | residual activity (CaMK1 (human); compound 1.0 µM): 109% | residual activity (CaMK1 (human); compound 10.0 µM): 109% | residual activity ([1]; compound 0.1 µM): 101% | residual activity ([1]; compound 1.0 µM): 59% | residual activity ([1]; compound 10.0 µM): 38% | residual activity (AURKB (human); compound 0.1 µM): 85% | residual activity (AURKB (human); compound 1.0 µM): 76% | residual activity (AURKB (human); compound 10.0 µM): 71% | residual activity (JAK2 JH1 JH2 (human); compound 0.1 µM): 108% | residual activity (JAK2 JH1 JH2 (human); compound 1.0 µM): 103% | residual activity (JAK2 JH1 JH2 (human); compound 10.0 µM): 110% | residual activity (MAP2K1 (human); compound 0.1 µM): 85% | residual activity (MAP2K1 (human); compound 1.0 µM): 103% | residual activity (MAP2K1 (human); compound 10.0 µM): 78% | residual activity (MAP3K11 (human); compound 1.0 µM): 111% | residual activity (MAP3K11 (human); compound 10.0 µM): 89% | residual activity (PHKG1 (human); compound 0.1 µM): 101% | residual activity (PHKG1 (human); compound 1.0 µM): 101% | residual activity (PHKG1 (human); compound 10.0 µM): 75% | residual activity (MAPK10 (human); compound 0.1 µM): 97% | residual activity (MAPK10 (human); compound 10.0 µM): 95% | residual activity (MST4 (human); compound 0.1 µM): 91% | residual activity (MST4 (human); compound 1.0 µM): 81% | residual activity (MST4 (human); compound 10.0 µM): 91% | residual activity (MAP3K9 (human); compound 0.1 µM): 105% | residual activity (MAP3K9 (human); compound 1.0 µM): 104% | residual activity (MAP3K9 (human); compound 10.0 µM): 99% | residual activity (YES1 (human); compound 0.1 µM): 108% | residual activity (YES1 (human); compound 1.0 µM): 98% | residual activity (YES1 (human); compound 10.0 µM): 86% | residual activity (RIPK2 (human); compound 0.1 µM): 86% | residual activity (RIPK2 (human); compound 1.0 µM): 77% | residual activity (RIPK2 (human); compound 10.0 µM): 77%
Compound: CCn1c(-c2nonc2N)nc2cncc(CNC3CCNCC3)c21

— the kinase profiling compilation of Christmann-Franck et al. (2016)
